{"source": "patent US9416103B2", "about": "“Use of the aminoalkylindole JWH-073-M4 and related compounds as neutral CB1 receptor antagonists for the treatment of alcoholism, drug abuse, obesity, and obesity-related diseases” (The Board of Trustees of the University of Arkansas, priority 2012, dated 2016)", "test_system": "NIH Swiss mice", "assay": "Catalepsy, horizontal bar test", "format": "in vivo, mouse", "conditions": "M4 10 mg/kg i.p. + JWH-018 3 mg/kg i.p."}
{"compound": "CCCCn1cc(C(=O)c2cccc3ccccc23)c2cccc(O)c21", "note": "[Compound M4]", "values": [{"measurement": "antagonism of JWH-018-induced catalepsy", "value": "no difference"}]}
